Reference: publication PMC5595280, “Cytotoxicity and anti-tumor effects of new ruthenium complexes on triple negative breast cancer cells” (PLoS ONE, 2017)

Experiments:
[1] = tested on: MDA-MB-231 cells; test: Cell morphology (inverted microscope); type: cell-based, human; settings: MDA-MB-231, 50 μM, 24 h
Method: (§1) Exponentially growing MDA-MB-231, MCF-7 or MCF-10A cells were harvested, counted and seeded (1x10^5 cells/mL) and plated on sterile 12-well plates for 24 h. Cells were allowed to grow at 37°C in 5% CO2 overnight and then, treated or not (control) with different concentrations of the complexes (1–4) for 2 and 24 h. Cell morphology was examined under an inverted microscope (Nikon, T5100) with amplification of 100×.
(§2) In this work the cytotoxicity of the complexes was evaluated against the MDA-MB-231, MCF-7 and MCF-10A cells by morphology, clonogenic and MTT assays (Fig 2, Table 1). To investigate the effects on cell morphology, the complexes were incubated with cells at concentrations of 25 and 50 μM for 24 h.

[2] = tested on: MCF-10A cells; test: Cell morphology (inverted microscope); type: cell-based, human; settings: 50 μM, 24 h
Method: as §1, §2

SMILES: CC(=O)[O-].F[P-](F)(F)(F)(F)F.[Ru+2].c1ccc(-c2ccccn2)nc1.c1ccc(P(CCCCP(c2ccccc2)c2ccccc2)c2ccccc2)cc1 [Complex (4), [Ru(CH3CO2)(dppb)(bipy)]PF6]
- effect on cell morphology [1]: profoundly altered their morphology
- effect on cell morphology / cell density [2]: profoundly altered their morphology
